The results in this text go back to US20260274892A1, “MACROCYCLIC BROAD SPECTRUM ANTIBIOTICS” (RQx Pharmaceuticals, Inc., priority 2017, published 2026).

For the assay, the system named is Escherichia coli ATCC 25922. Description: Minimum inhibitory concentration (MIC), CLSI broth micro-dilution, E. coli. In kind it is cell-based. The settings on record: Escherichia coli. The procedure:
In vitro antimicrobial activity of each compound was determined by measuring minimal inhibitor concentrations (MICs) using the broth micro-dilution technique as approved by the Clinical and Laboratory Standards Institute (CLSI) (Methods for Dilution Antimicrobial Susceptibility Tests for Bacteria that Grow Aerobically; Approved Standard-Eighth Edition. CLSI document M07-A8. Wayne, PA: Clinical and Laboratroy Standards; 2009). Antibacterial activity was measure against two strains of bacteria: a Methicillin Resistant Staphylococcus aureus strain USA 200, (S. aureus) and Escherichia coli ATCC 25922 (E. coli), a clinically relevant Gram-negative strain. Cells were inoculated onto plates of Trypyticase Soy Agar or Luria Agar respectively and grown at 35° C. for 20 hours. Inocula suspensions were prepared by scraping cells into 1 mL of testing media (cation adjusted Mueller Hinton Broth supplemented with 0.002% v/v Tween-80) and diluting to a final OD600nm of 0.01.
Test compounds were prepared in DMSO at a concentration of 10 mg/mL. In protocol 1, the compound stocks were diluted into testing media at a concentration of 64 µg/ml and serial 2-fold dilutions were made in the same media, in 96-well U bottom microtiter dishes, for a total of 10 compound concentrations. In protocol 2, the compound stocks were diluted into testing media at a concentration of 4 µg/mL and serial 2-fold dilutions were made in the same media, in 96-well U bottom microtiter dishes, for a total of 10 compound concentrations. In protocol 3, compound stocks were diluted into testing media at a concentration of 0.5 μg/mL, with serial 2-fold dilutions conducted as described above. In protocol 4, compound stocks were diluted into testing media at a concentration of […], with serial 2-fold dilutions conducted as described above. Inocula suspensions were added to the 2-fold serial dilutions of test compounds to a final density of GD OD600nm of 0.0005 and incubated at 35° C. for 22 hours.
(In general: In broth dilution the organism is exposed to a series of concentrations in liquid medium.)

The mark [1] stands for this setting: ATCC25922, Table 6, cation adjusted Mueller Hinton Broth + 0.002% Tween-80, 35° C., 22 hours.
[2] abbreviates: ATCC25922, 22 h, Table 6, cation adjusted Mueller Hinton Broth + 0.002% Tween-80, 35° C.

The term MIC denotes the smallest concentration in the dilution series that meets the test's criterion for growth inhibition. In the case of `CCCCCOc1ccc(-c2ncc(C(=O)N[C@@H](CCN)C(=O)N(C)[C@@H]3C(=O)N[C@@H](C)C(=O)N[C@H](C(=O)NCC#N)Cc4ccc(OCCN)c(c4)-c4cc3ccc4OCCN)c(C)n2)cc1` (racemic) [Compound 241, rac-(8S,11S,14S)-3,18-bis(2-aminoethoxy)-N-(cyanomethyl)-11-methyl-14-[methyl-[rac-(2S)-4-amino-2-[[4-methyl-2-(4-pentoxyphenyl)pyrimidine-5-carbonyl]amino]butanoyl]amino]-10,13-dioxo-9,12-diazatricyclo[13.3.1.12,6]icosa-1(18),2(20),3,5,15(19),16-hexaene-8-carboxamide], under setting [1], the minimal inhibitory concentration (MIC) came out at 0.097 µM.
Same read-out and setting: the same measure for `Cc1nc(-c2ccc(OCC(C)(C)C)cc2)ncc1C(=O)N[C@@H](CCN)C(=O)N(C)[C@@H]1C(=O)N[C@@H](C)C(=O)N[C@H](C(=O)NCC#N)Cc2ccc(OCCN)c(c2)-c2cc1ccc2OCCN` (racemic) [Compound 252, rac-(8S,11S,14S)-3,18-bis(2-aminoethoxy)-N-(cyanomethyl)-11-methyl-14-[methyl-[rac-(2S)-4-amino-2-[[2-[4-(2,2-dimethylpropoxy)phenyl]-4-methyl-pyrimidine-5-carbonyl]amino]butanoyl]amino]-10,13-dioxo-9,12-diazatricyclo[13.3.1.12,6]icosa-1(18),2(20),3,5,15(19),16-hexaene-8-carboxamide]: 0.097 µM.
The same measure, in the same setting: in the case of `Cc1nc(-c2ccc(C3(C4CCCC4)CC3)cc2)nc(C)c1C(=O)N[C@@H](CCN)C(=O)N(C)[C@@H]1C(=O)N[C@@H](C)C(=O)N[C@H](C(=O)NCC#N)Cc2ccc(OCCN)c(c2)-c2cc1ccc2OCCN` (racemic) [Compound 286, rac-(8S,11S,14S)-3,18-bis(2-aminoethoxy)-N-(cyanomethyl)-11-methyl-14-[methyl-[rac-(2S)-4-amino-2-[[2-[4-(1-cyclopentylcyclopropyl)phenyl]-4,6-dimethyl-pyrimidine-5-carbonyl]amino]butanoyl]amino]-10,13-dioxo-9,12-diazatricyclo[13.3.1.12,6]icosa-1(18),2(20),3,5,15(19),16-hexaene-8-carboxamide] it was 0.13 µM.
On the same count and under the same terms, in the case of `CCCCc1ccc(-c2nc(C)c(C(=O)N[C@@H](CCN)C(=O)N(C)[C@@H]3C(=O)N[C@@H](C)C(=O)N[C@H](C(=O)NCC#N)Cc4ccc(OCCN)c(c4)-c4cc3ccc4OCCN)c(C)n2)nc1` (racemic) [Compound 293, rac-(8S,11S,14S)-3,18-bis(2-aminoethoxy)-N-(cyanomethyl)-11-methyl-14-[methyl-[rac-(2S)-4-amino-2-[[2-(5-butyl-2-pyridyl)-4,6-dimethyl-pyrimidine-5-carbonyl]amino]butanoyl]amino]-10,13-dioxo-9,12-diazatricyclo[13.3.1.12,6]icosa-1(18),2(20),3,5,15(19),16-hexaene-8-carboxamide] it was 1.5 µM; in that of `Cc1nc(-c2ccc(C(C)(C)C)cc2F)nc(C)c1C(=O)N[C@@H](CCN)C(=O)N(C)[C@@H]1C(=O)N[C@@H](C)C(=O)N[C@H](C(=O)NCC#N)Cc2ccc(OCCN)c(c2)-c2cc1ccc2OCCN` (racemic) [Compound 299, rac-(8S,11S,14S)-3,18-bis(2-aminoethoxy)-N-(cyanomethyl)-11-methyl-14-[methyl-[rac-(2S)-4-amino-2-[[2-(4-tert-butyl-2-fluoro-phenyl)-4,6-dimethyl-pyrimidine-5-carbonyl]amino]butanoyl]amino]-10,13-dioxo-9,12-diazatricyclo[13.3.1.12,6]icosa-1(18),2(20),3,5,15(19),16-hexaene-8-carboxamide], 0.38 µM.
In the case of `Cc1nc(-c2ccc(C3CCCC3)cc2)nc(C)c1C(=O)N[C@@H](CCN)C(=O)N(C)[C@@H]1C(=O)N[C@@H](C)C(=O)N[C@H](C(=O)NCC#N)Cc2ccc(OCCN)c(c2)-c2cc1ccc2OCCN` (racemic) [Compound 302, rac-(8S,11S,14S)-3,18-bis(2-aminoethoxy)-N-(cyanomethyl)-11-methyl-14-[methyl-[rac-(2S)-4-amino-2-[[2-(4-cyclopentylphenyl)-4,6-dimethyl-pyrimidine-5-carbonyl]amino]butanoyl]amino]-10,13-dioxo-9,12-diazatricyclo[13.3.1.12,6]icosa-1(18),2(20),3,5,15(19),16-hexaene-8-carboxamide], the MIC under setting [2] was determined as 0.5 µM.
Still for that read-out and setting: in the case of `Cc1nc(-c2ccc(C3=CCCCC3)cc2)nc(C)c1C(=O)N[C@@H](CCN)C(=O)N(C)[C@@H]1C(=O)N[C@@H](C)C(=O)N[C@H](C(=O)NCC#N)Cc2ccc(OCCN)c(c2)-c2cc1ccc2OCCN` (racemic) [Compound 303, rac-(8S,11S,14S)-3,18-bis(2-aminoethoxy)-N-(cyanomethyl)-11-methyl-14-[methyl-[rac-(2S)-4-amino-2-[[2-[4-(cyclohexen-1-yl)phenyl]-4,6-dimethyl-pyrimidine-5-carbonyl]amino]butanoyl]amino]-10,13-dioxo-9,12-diazatricyclo[13.3.1.12,6]icosa-1(18),2(20),3,5,15(19),16-hexaene-8-carboxamide] it was 0.13 µM; in that of `Cc1nc(-c2ccc(C3CCCCC3)cc2)nc(C)c1C(=O)N[C@@H](CCN)C(=O)N(C)[C@@H]1C(=O)N[C@@H](C)C(=O)N[C@H](C(=O)NCC#N)Cc2ccc(OCCN)c(c2)-c2cc1ccc2OCCN` (racemic) [Compound 304, rac-(8S,11S,14S)-3,18-bis(2-aminoethoxy)-N-(cyanomethyl)-11-methyl-14-[methyl-[rac-(2S)-4-amino-2-[[2-(4-cyclohexylphenyl)-4,6-dimethyl-pyrimidine-5-carbonyl]amino]butanoyl]amino]-10,13-dioxo-9,12-diazatricyclo[13.3.1.12,6]icosa-1(18),2(20),3,5,15(19),16-hexaene-8-carboxamide], 0.13 µM; in that of `Cc1nc(-c2ccc(C3CCCCCC3)cc2)nc(C)c1C(=O)N[C@@H](CCN)C(=O)N(C)[C@@H]1C(=O)N[C@@H](C)C(=O)N[C@H](C(=O)NCC#N)Cc2ccc(OCCN)c(c2)-c2cc1ccc2OCCN` (racemic) [Compound 305, rac-(8S,11S,14S)-3,18-bis(2-aminoethoxy)-N-(cyanomethyl)-11-methyl-14-[methyl-[rac-(2S)-4-amino-2-[[2-(4-cycloheptylphenyl)-4,6-dimethyl-pyrimidine-5-carbonyl]amino]butanoyl]amino]-10,13-dioxo-9,12-diazatricyclo[13.3.1.12,6]icosa-1(18),2(20),3,5,15(19),16-hexaene-8-carboxamide], 0.13 µM.
Regarding `C=Cc1ccc(C#Cc2nc(C)c(C(=O)N[C@@H](CCN)C(=O)N(C)[C@@H]3C(=O)N[C@@H](C)C(=O)N[C@H](C(=O)NCC#N)Cc4ccc(OCCN)c(c4)-c4cc3ccc4OCCN)c(C)n2)cc1` (racemic) [Compound 310, rac-(8S,11S,14S)-3,18-bis(2-aminoethoxy)-N-(cyanomethyl)-11-methyl-14-[methyl-[rac-(2S)-4-amino-2-[[4,6-dimethyl-2-[2-(4-vinylphenyl)ethynyl]pyrimidine-5-carbonyl]amino]butanoyl]amino]-10,13-dioxo-9,12-diazatricyclo[13.3.1.12,6]icosa-1(18),2(20),3,5,15(19),16-hexaene-8-carboxamide], the minimal inhibitory concentration (MIC) under setting [1] turned out to be 0.53 µM.
